Measurements published in ChEMBL document CHEMBL1123144, “Studies on 4(1H)-quinazolinones. 5. Synthesis and antiinflammatory activity of 4(1H)-quinazolinone derivatives” (J Med Chem, 1985).
Calls of active or inactive are those of the source. No cut-off for these calls is given here.

Legend:
[1] = tested on: Rattus norvegicus; test: Percent inhibition against carrageenan-induced rat paw edema at 50 mg/kg dose administered perorally; 21-30%; type: functional; conditions: route oral
[2] = tested on: Rattus norvegicus; test: Percent inhibition against carrageenan-induced rat paw edema at 50 mg/kg dose administered perorally; 31-40%; type: functional; conditions: route oral
[3] = tested on: Rattus norvegicus; test: Percent inhibition against carrageenan-induced rat paw edema at 50 mg/kg dose administered perorally; 0-10%; type: functional; conditions: route oral
[4] = tested on: Rattus norvegicus; test: Analgesic activity by oral administration route; type: functional
[5] = tested on: Rattus norvegicus; test: Anti-inflammatory activity following oral administration; type: functional
[6] = tested on: Rattus norvegicus; test: Percent inhibition against carrageenan-induced rat paw edema at 50 mg/kg dose administered perorally; 41-50%; type: functional; conditions: route oral
[7] = tested on: Rattus norvegicus; test: Percent inhibition against carrageenan-induced rat paw edema at 50 mg/kg dose administered perorally; type: functional; conditions: route oral
[8] = tested on: Mus musculus; test: Number of mice bearing ulcer at dose 45 mg/kg out of 5 mices tested; type: functional
[9] = tested on: Mus musculus; test: Ulcer index by number of mice bearing ulcer at dose 45 mg/kg out of 5 mice tested; type: functional
[10] = tested on: Mus musculus; test: Toxicity by number of mice dead at dose 500 mg/kg out of 5 mice tested by oral administration route; Value represented as 5/5; type: organism-based; design: dose 500 mg/kg, route oral; conditions: in vivo
[11] = tested on: Rattus norvegicus; test: Percent inhibition against carrageenan-induced rat paw edema at 50 mg/kg dose administered perorally; 11-20%; type: functional; conditions: route oral
[12] = tested on: Rattus norvegicus; test: Analgesic activity following oral administration at a dose 30 mg/kg; type: functional
[13] = tested on: Mus musculus; test: Number of mice bearing ulcer at dose 60 mg/kg out of 5 mices tested; type: functional
[14] = tested on: Mus musculus; test: Ulcer index by number of mice bearing ulcer at dose 60 mg/kg out of 5 mice tested; type: functional
[15] = tested on: Mus musculus; test: Toxicity by number of mice dead at dose 500 mg/kg out of 5 mice tested by oral administration route; Value represented as 1/5; type: organism-based; design: dose 500 mg/kg, route oral; conditions: in vivo
[16] = tested on: Mus musculus; test: Number of mice bearing ulcer at dose 30 mg/kg out of 5 mices tested; type: functional
[17] = tested on: Mus musculus; test: Ulcer index by number of mice bearing ulcer at dose 30 mg/kg out of 5 mice tested; type: functional
[18] = tested on: Mus musculus; test: Toxicity by number of mice dead at dose 500 mg/kg out of 5 mice tested by oral administration route; Value represented as 0/5; type: organism-based; design: dose 500 mg/kg, route oral; conditions: in vivo
[19] = tested on: Mus musculus; test: Number of mice bearing ulcer at dose 48 mg/kg out of 5 mices tested; type: functional
[20] = tested on: Mus musculus; test: Ulcer index by number of mice bearing ulcer at dose 48 mg/kg out of 5 mice tested; type: functional
[21] = tested on: Rattus norvegicus; test: Analgesic activity by oral administration of 200 mg/kg; Not effective; type: functional, organism-based; design: dose 200 mg/kg

CC(C)n1c(-c2ccccc2)nc2ccccc2c1=O
inhibition in vivo at 50 mg/kg [1]: 30%

CC(C)c1nc2ccccc2c(=O)n1-c1ccccc1
inhibition in vivo at 50 mg/kg [1]: 30%

CC(C)n1c(-c2ccccc2F)nc(=O)c2ccc(Cl)cc21
inhibition in vivo at 50 mg/kg [2]: 40%

O=c1nc(CCl)n(-c2ccccc2)c2ccccc12
inhibition in vivo at 50 mg/kg [3]: 10%

CC(C)n1c(-c2ccc(F)cc2)nc(=O)c2cc(Cl)ccc21
ED30 [4]: 100 mg/kg | ED30 [5]: 18 mg/kg | inhibition in vivo at 50 mg/kg [6]: 50%

CCOC(=O)C(C)c1nc(=O)c2ccccc2n1-c1ccccc1 (configuration not stated)
inhibition in vivo at 50 mg/kg [1]: 30%

CCCCc1nc(=O)c2ccccc2n1-c1ccccc1
inhibition in vivo at 50 mg/kg [3]: 10%

CCN(CC)Cc1nc(=O)c2ccccc2n1-c1ccccc1
inhibition in vivo at 50 mg/kg [3]: 10%

O=c1nc(C2CC2)n(-c2ccccc2)c2ccccc12
inhibition in vivo at 50 mg/kg [7]: ≥ 51%

COc1ccccc1-c1nc(=O)c2ccccc2n1C(C)C
inhibition in vivo at 50 mg/kg [3]: 10%

CC(C)n1c(-c2ccccc2)nc(=O)c2cc(Br)ccc21
inhibition in vivo at 50 mg/kg [1]: 30%

CC(C)n1c(-c2ccc(Cl)cc2)nc(=O)c2ccccc21
No. of mice [8]: 0 | Ulcer Index [9]: 0 | Toxicity [10]: 5 | ED30 [4]: 44 mg/kg | ED30 [5]: 15 mg/kg | inhibition in vivo at 50 mg/kg [6]: 50%

COc1cccc2c1c(=O)nc(-c1ccccc1)n2C(C)C
inhibition in vivo at 50 mg/kg [11]: 20%

CC(C)C1NC(=O)c2ccccc2N1c1ccccc1 (configuration not stated)
inhibition in vivo at 50 mg/kg [3]: 10%

CC(C)n1c(-c2ccc(N)cc2)nc(=O)c2ccccc21
inhibition in vivo at 50 mg/kg [3]: 10%

COc1ccc2c(c1)c(=O)nc(-c1ccccc1)n2C(C)C
inhibition in vivo at 50 mg/kg [2]: 40%

CC(C)c1nc(=O)c2ccccc2n1-c1ccc(N)cc1
inhibition in vivo at 50 mg/kg [1]: 30%

CC(C)c1nc(=O)c2ccccc2n1-c1ccccc1C(=O)O
inhibition in vivo at 50 mg/kg [11]: 20%

COc1ccc2c(c1)c(=O)nc(-c1ccccc1F)n2C(C)C
inhibition in vivo at 50 mg/kg [1]: 30%

CC(C)c1nc(=O)c2ccccc2n1-c1ccccc1C(N)=O
inhibition in vivo at 50 mg/kg [3]: 10%

CC(C)n1c(-c2ccc(Br)cc2)nc(=O)c2ccccc21
inhibition in vivo at 50 mg/kg [6]: 50%

CC(C)N1c2ccccc2C(=O)NC1c1ccccc1Cl (configuration not stated)
inhibition in vivo at 50 mg/kg [3]: 10%

O=c1nc(C2CCCCCC2)n(-c2ccccc2)c2ccccc12
inhibition in vivo at 50 mg/kg [3]: 10%

CC(C)c1nc(=O)c2ccc(Cl)cc2n1-c1ccccc1
ED30 [4]: 80 mg/kg | ED30 [5]: 21 mg/kg | inhibition in vivo at 50 mg/kg [7]: ≥ 51%

CC(C)c1nc(=O)c2ccccc2n1-c1ccccc1
ED30 [12]: 70 mg/kg | ED30 [5]: 30 mg/kg | inhibition in vivo at 50 mg/kg [2]: 40%

CC(C)n1c(-c2ccccc2Cl)nc(=O)c2ccccc21
inhibition in vivo at 50 mg/kg [6]: 50%

O=c1nc(C(F)(F)F)n(-c2ccccc2)c2ccccc12
inhibition in vivo at 50 mg/kg [3]: 10%

CC(C)c1nc(=O)c2cc(CC(=O)O)ccc2n1-c1ccccc1
inhibition in vivo at 50 mg/kg [3]: 10%

Cc1nc(=O)c2ccccc2n1-c1cccc(C(F)(F)F)c1
inhibition in vivo at 50 mg/kg [3]: 10%

CC(C)c1nc(=O)n(-c2ccccc2)c2ccccc12
inhibition in vivo at 50 mg/kg [3]: 10%

CC(C)n1c(-c2ccc(F)cc2)nc(=O)c2ccccc21
inhibition in vivo at 50 mg/kg [6]: 50%

O=C(O)CCc1nc(=O)c2ccccc2n1-c1ccccc1
inhibition in vivo at 50 mg/kg [3]: 10%

CC(C)c1nc(=O)c2ccc(N)cc2n1-c1ccccc1
inhibition in vivo at 50 mg/kg [11]: 20%

O=c1nc(C2CC2)n(-c2ccc(F)cc2)c2ccccc12
inhibition in vivo at 50 mg/kg [7]: ≥ 51%

Cc1nc(=O)c2ccccc2n1-c1ccccc1
inhibition in vivo at 50 mg/kg [3]: 10%

CC(C)n1c(-c2ccccc2F)nc(=O)c2ccccc21
No. of mice [13]: 1 | Ulcer Index [14]: 0.1 | Toxicity [15]: 1 | ED30 [4]: 65 mg/kg | ED30 [5]: 20 mg/kg | inhibition in vivo at 50 mg/kg [7]: ≥ 51%

Cc1ccc2c(-c3ccccc3)nc(=O)n(C(C)C)c2c1 [PROQUAZONE]
No. of mice [16]: 4 | Ulcer Index [17]: 0.12 | Toxicity [18]: 0 | ED30 [4]: 20 mg/kg | ED30 [5]: 10 mg/kg | inhibition in vivo at 50 mg/kg [6]: 50%

CC(C)c1nc(=O)c2ccccc2n1-c1ccc(F)cc1
ED30 [4]: 76 mg/kg | ED30 [5]: 30 mg/kg | inhibition in vivo at 50 mg/kg [6]: 50%

CCN(CC)Cc1nc(=O)c2ccccc2n1-c1cccc(C(F)(F)F)c1
inhibition in vivo at 50 mg/kg [1]: 30%

CC(C)n1c(-c2ccc(Cl)cc2)nc(=O)c2cc(Cl)ccc21
inhibition in vivo at 50 mg/kg [3]: 10%

CC(C)(C)c1nc(=O)c2ccccc2n1-c1ccccc1
inhibition in vivo at 50 mg/kg [3]: 10%

CC(C)n1c(-c2ccccc2)nc(=O)c2cc(Cl)ccc21
inhibition in vivo at 50 mg/kg [6]: 50%

CC(C)n1c(-c2ccccc2F)nc(=O)c2cc(Cl)ccc21
inhibition in vivo at 50 mg/kg [11]: 20%

CC(C)n1c(-c2ccc(F)cc2)nc(=O)c2ccc(Cl)cc21
inhibition in vivo at 50 mg/kg [1]: 30%

COC(=O)CCc1nc(=O)c2ccccc2n1-c1ccccc1
inhibition in vivo at 50 mg/kg [3]: 10%

CC(C)n1c(-c2ccc([N+](=O)[O-])cc2)nc(=O)c2ccccc21
inhibition in vivo at 50 mg/kg [3]: 10%

Cc1ccc2c(c1)c(=O)nc(C(C)C)n2-c1ccccc1
inhibition in vivo at 50 mg/kg [1]: 30%

CC(C)n1c(-c2ccccc2Br)nc(=O)c2ccccc21
inhibition in vivo at 50 mg/kg [3]: 10%

O=c1nc(C2CC2)n(-c2ccc(Cl)cc2)c2ccccc12
inhibition in vivo at 50 mg/kg [3]: 10%

CC(=O)c1ccc(-n2c(C(C)C)nc(=O)c3ccccc32)cc1
inhibition in vivo at 50 mg/kg [1]: 30%

CC(C)n1c(-c2ccc(Cl)cc2)nc(=O)c2ccc(Cl)cc21
inhibition in vivo at 50 mg/kg [1]: 30%

COc1ccc2c(c1)c(=O)nc(C(C)C)n2-c1ccccc1
inhibition in vivo at 50 mg/kg [7]: ≥ 51%

O=c1nc(CCl)n(-c2cccc(C(F)(F)F)c2)c2ccccc12
inhibition in vivo at 50 mg/kg [3]: 10%

CC(C)n1c(-c2ccccc2)nc(=O)c2cc(F)ccc21
inhibition in vivo at 50 mg/kg [2]: 40%

CN(C)c1nc(=O)c2ccccc2n1-c1ccccc1
inhibition in vivo at 50 mg/kg [3]: 10%

CC(C)c1nc(=O)c2ccccc2n1-c1ccc(CC(=O)O)cc1
inhibition in vivo at 50 mg/kg [11]: 20%

CC(C)n1c(-c2ccccc2)nc(=O)c2c(Cl)cccc21
inhibition in vivo at 50 mg/kg [11]: 20%

CC(C)n1c(-c2ccccc2Cl)nc(=O)c2cc(F)ccc21
inhibition in vivo at 50 mg/kg [1]: 30%

CC(C)n1c(-c2cccc(Cl)c2)nc(=O)c2ccccc21
inhibition in vivo at 50 mg/kg [6]: 50%

O=c1nc(C2CC2)n(-c2ccc([N+](=O)[O-])cc2)c2ccccc12
inhibition in vivo at 50 mg/kg [3]: 10%

O=c1nc(C2CCC2)n(-c2ccc(Cl)cc2)c2ccccc12
inhibition in vivo at 50 mg/kg [1]: 30%

CC(C)c1nc(=O)c2ccccc2n1-c1ccccc1Cl
inhibition in vivo at 50 mg/kg [11]: 20%

CC(=O)c1ccc2c(c1)c(=O)nc(C(C)C)n2-c1ccccc1
inhibition in vivo at 50 mg/kg [3]: 10%

O=c1nc(C2CCC2)n(-c2ccccc2)c2ccccc12
inhibition in vivo at 50 mg/kg [1]: 30%

Cc1ccc2c(=O)nc(C(C)C)n(-c3ccccc3)c2c1
inhibition in vivo at 50 mg/kg [1]: 30%

Cc1ccccc1-n1c(C(C)C)nc(=O)c2ccccc21
inhibition in vivo at 50 mg/kg [2]: 40%

CC(C)n1c(-c2ccccc2)nc(=O)c2ccc(Cl)cc21
No. of mice [19]: 3 | Ulcer Index [20]: 0.2 | Toxicity [18]: 0 | ED30 [21]: inactive | ED30 [5]: 16 mg/kg | inhibition in vivo at 50 mg/kg [6]: 50%

O=c1nc(C2CCC2)n(-c2ccc([N+](=O)[O-])cc2)c2ccccc12
inhibition in vivo at 50 mg/kg [3]: 10%

CC(C)c1nc(=O)c2ccc([N+](=O)[O-])cc2n1-c1ccccc1
inhibition in vivo at 50 mg/kg [3]: 10%

Cc1ccc2c(=O)nc(-c3ccccc3)n(C(C)C)c2c1
inhibition in vivo at 50 mg/kg [3]: 10%

Cc1ccc(-c2nc(=O)c3ccccc3n2C(C)C)cc1
inhibition in vivo at 50 mg/kg [3]: 10%

CC(C)Cc1nc(=O)c2ccccc2n1-c1ccccc1
inhibition in vivo at 50 mg/kg [1]: 30%

CC(C)n1c(-c2ccc(Cl)c(Cl)c2)nc(=O)c2ccccc21
inhibition in vivo at 50 mg/kg [6]: 50%

O=c1nc(C2CC2)n(-c2cccc(C(F)(F)F)c2)c2ccccc12
inhibition in vivo at 50 mg/kg [3]: 10%

CC(C)n1c(-c2ccccc2Cl)nc(=O)c2cc(Cl)ccc21
inhibition in vivo at 50 mg/kg [6]: 50%

CC(C)c1nc(=O)c2ccccc2n1-c1ccc([N+](=O)[O-])cc1
inhibition in vivo at 50 mg/kg [2]: 40%

CC(C)n1c(-c2ccccc2)nc(=O)c2ccccc21
inhibition in vivo at 50 mg/kg [6]: 50%

CC(C)c1nc(=O)c2ccccc2n1-c1cccc(C(F)(F)F)c1
inhibition in vivo at 50 mg/kg [1]: 30%

CC(C)c1nc(=O)c2ccccc2n1-c1ccc(Cl)cc1
inhibition in vivo at 50 mg/kg [7]: ≥ 51%
